Where two headings read alike, the source gives them in different places.
Assays:
SARS COVID-19 = format: cell-based; details: for TCID 50% viral kill: 5-minute exposure
Influenza A = format: cell-based
infectious microorganism = details: cited from earlier work
Ebola virus = details: exposure times of at least several minutes required, cited from earlier work

Row | SMILES | TCID 50% viral kill (SARS COVID-19; 1 ppm) | TCID 50% viral kill (SARS COVID-19; 2.5 ppm) | TCID 50% viral kill (SARS COVID-19; 10 ppm) | TCID 50% viral kill (SARS COVID-19; 25 ppm) | virus kill by HOCl treatment (SARS COVID-19; concentrations of between 1 ppm and 25 ppm) | TCID 50% viral kill (Influenza A) | virus kill by HOCl treatment (Influenza A) | growth inhibition (infectious microorganism; 2.6 ppm, in 5 minutes) [%] | LD50 (infectious microorganism; reported) | destruction of Ebola virus (Ebola virus; 0.5% solution) | destruction of Ebola virus (Ebola virus; 1% solution)
1 | OCl [HOCl, hypochlorous acid] | viral kill positive | viral kill positive | viral kill positive | viral kill positive | killed | viral kill positive | killed | 100 | 0.0104-0.156 ppm | – | –
2 | OCl [sodium hypochlorite, Sodium hypochlorite] | – | – | – | – | – | – | – | – | – | effectively destroy | effectively destroy
